Measured values as given in patent US8815852B2, “Carbamoyloxy arylalkan arylpiperazine analgesics” (SK Biopharmaceuticals Co., Ltd., priority 2007, dated 2014).

System: male ICR mouse
Test: Acetic acid-induced writhing test in mouse
Assay type: in vivo
Conditions: Mus musculus, po; for inhibition in vivo at 10 mg/kg: 1 h, at 10 po (method: 10 mg/kg oral, 1 hour before acetic acid), read-out: AA Writhing: Suppression ratio of Pain response; for ED50: unit not given (method doses in mg/kg), read-out: AA Writhing: ED50
Procedure: 2. Acetic Acid-Induced Writhing Test in Mouse
An acetic acid-induced writhing test is one of models for measuring an analgesic effect of drugs. A test material dissolved in a suitable vehicle was orally administered to a male ICR mouse weighing 30 to 35 g at an amount of 10 mg/kg. After 1 hour of the oral administration, […] of an aqueous 0.8% acetic acid solution was intraperitoneally injected into the male ICR mouse to induce the abdominal pain of the male ICR mouse. Right after the administration of acetic acid, the male ICR mouse was put into an empty cage, and the number of writhing behaviors of the mice was counted for 10 minutes. The term “writhing represents a reflex action in which the mouse overtly extends its abdomen by stretching its hind legs due to the abdominal pain. The analgesic effect of the test material is represented by the ‘suppression ratio of pain response’ {[(Writhing number of Vehicle-administered group−Writhing number of Test material-administered group)/(Writhing number of Vehicle-administered group)]×100%} or 50% of Effective amount (ED50 (median effective dose); an amount of test material that is required to suppress 50% of pain behaviors) of Test material. The ED50 (median effective dose) was determined by calculating the suppression ratio of pain response in at least three doses of test materials and subjecting to the linear regression.

| Structure (SMILES) | inhibition in vivo at 10 mg/kg [%] | ED50 [mg/kg] |
| --- | --- | --- |
| COc1ccc(N2CCN(CCC(OC(N)=O)c3cccc([N+](=O)[O-])c3)CC2)cc1 (stereo not drawn) [Example 65, Carbamic acid 3-[4-(4-methoxy-phenyl)-piperazin-1-yl]-1-(3-nitro-phenyl)-propyl ester] | 39 |  |
| COc1ccc(N2CCN(CCC(OC(N)=O)c3ccc(C)cc3)CC2)cc1 (stereo not drawn) [Example 56, Carbamic acid 3-[4-(4-methoxy-phenyl)-piperazin-1-yl]-1-p-tolyl-propyl ester] | 93 |  |
| COc1ccc(N2CCN(CCC(OC(N)=O)c3ccccc3Cl)CC2)cc1 (stereo not drawn) [Example 50, Carbamic acid 1-(2-chloro-phenyl)-3-[4-(4-methoxy-phenyl)-piperazin-1-yl]-propyl ester] | 49 |  |
| COc1ccc(N2CCN(CCC(OC(N)=O)c3cccc4ccccc34)CC2)cc1 (stereo not drawn) [Example 55, Carbamic acid 3-[4-(4-methoxy-phenyl)-piperazin-1-yl]-1-naphthalen-1-yl-propyl ester] | 16 |  |
| NC(=O)OC(CCN1CCN(c2ccc(OC(F)(F)F)cc2)CC1)c1ccccc1 (stereo not drawn) [Example 12, Carbamic acid 1-phenyl-3-[4-(4-trifluoromethoxy-phenyl)-piperazin-1-yl]-propyl ester] | 18 |  |
| CC(=O)Oc1ccc(N2CCN(CCC(OC(N)=O)c3ccccc3)CC2)cc1 (stereo not drawn) [Example 86, Acetic acid 4-[4-(3-carbamoyloxy-3-phenyl-propyl)-piperazin-1-yl]-phenyl ester] |  | 7.52 |
| COc1ccc(N2CCN(CC3CCc4ccccc4C3OC(N)=O)CC2)cc1 (stereo not drawn) [Example 82, Carbamic acid 2-[4-(4-methoxy-phenyl)-piperazin-1-ylmethyl]-1,2,3,4-tetrahydro-naphthalen-1-yl ester] | 55 |  |
| COc1ccc(N2CCN(CCC(OC(N)=O)c3cccc(OC)c3)CC2)cc1 (stereo not drawn) [Example 54, Carbamic acid 1-(3-methoxy-phenyl)-3-[4-(4-methoxy-phenyl)-piperazin-1-yl]-propyl ester] | 69 |  |
| NC(=O)OC(CCN1CCN(c2ncccn2)CC1)c1ccccc1 (stereo not drawn) [Example 34, Carbamic acid 1-phenyl-3-(4-pyrimidin-2-yl-piperazin-1-yl)-propyl ester] | 21 |  |
| Cc1ccc(N2CCN(CCC(OC(N)=O)c3ccccc3)CC2)c(C)c1 (stereo not drawn) [Example 13, Carbamic acid 3-[4-(2,4-dimethyl-phenyl)-piperazin-1-yl]-1-phenyl-propyl ester] | 34 |  |
| COc1ccc(N2CCN(CCC(OC(N)=O)c3ccc(C(F)(F)F)cc3)CC2)cc1 (stereo not drawn) [Example 66, Carbamic acid 3-[4-(4-methoxy-phenyl)-piperazin-1-yl]-1-(4-trifluoromethyl-phenyl)-propyl ester] | 95 |  |
| COc1ccc(N2CCN(CCC(OC(N)=O)c3ccccc3C(F)(F)F)CC2)cc1 (stereo not drawn) [Example 51, Carbamic acid 3-[4-(4-methoxy-phenyl)-piperazin-1-yl]-1-(2-trifluoromethyl-phenyl)-propyl ester] | 95 |  |
| NC(=O)OC(CCN1CCN(c2ccc3c(c2)OCO3)CC1)c1ccccc1 (stereo not drawn) [Example 30, Carbamic acid 3-(4-benzo[1,3]dioxol-5-yl-piperazin-1-yl)-1-phenyl-propyl ester] | 93 |  |
| COc1ccc(Cl)cc1N1CCN(CCC(OC(N)=O)c2ccc(F)cc2)CC1 (stereo not drawn) [Example 75, Carbamic acid 3-[4-(5-chloro-2-methoxy-phenyl)-piperazin-1-yl]-1-(4-fluoro-phenyl)-propyl ester] | 14 |  |
| CCOc1ccccc1N1CCN(CCC(OC(N)=O)c2ccc(F)cc2)CC1 (stereo not drawn) [Example 74, Carbamic acid 3-[4-(2-ethoxy-phenyl)-piperazin-1-yl]-1-(4-fluoro-phenyl)-propyl ester] | 44 |  |
| CC(CC(OC(N)=O)c1ccccc1)N1CCN(c2cnc3ccccc3n2)CC1 (stereo not drawn) [Example 112] | 72 |  |
| CC(CC(OC(N)=O)c1ccccc1)N1CCN(c2ccc([N+](=O)[O-])cc2)CC1 (stereo not drawn) [Example 110, Carbamic acid 3-[4-(4-nitro-phenyl)-piperazin-1-yl]-1-phenyl-butyl ester] | 17 |  |
| COc1ccc(Cl)cc1N1CCN(CCC(OC(N)=O)c2ccccc2)CC1 (stereo not drawn) [Example 32, Carbamic acid 3-[4-(5-chloro-2-methoxy-phenyl)-piperazin-1-yl]-1-phenyl-propyl ester] | 23 |  |
| Cc1ccc(N2CCN(CCC(OC(N)=O)c3ccccc3)CC2)cc1C (stereo not drawn) [Example 29, Carbamic acid 3-[4-(3,4-dimethyl-phenyl)-piperazin-1-yl]-1-phenyl-propyl ester] | 99 |  |
| COc1ccc(N2CCN(CCC(OC(N)=O)c3ccc4c(c3)OCO4)CC2)cc1 (stereo not drawn) [Example 67] | 57 |  |
| NC(=O)OC(CCN1CCN(c2ccc(O)cc2)CC1)c1ccc(F)cc1 (stereo not drawn) [Example 88, Carbamic acid 1-(4-fluoro-phenyl)-3-[4-(4-hydroxy-phenyl)-piperazin-1-yl]-propyl ester] |  | 7.24 |
| COc1cc(OC)cc(N2CCN(CCC(OC(N)=O)c3ccccc3)CC2)c1 (stereo not drawn) [Example 33, Carbamic acid 3-[4-(3,5-dimethoxy-phenyl)-piperazin-1-yl]-1-phenyl-propyl ester] | 13 |  |
| CC(C)(C)C(=O)Oc1ccc(N2CCN(CCC(OC(N)=O)c3ccc(F)cc3)CC2)cc1 (stereo not drawn) [Example 89, 1-(4-fluorophenyl)-3-(4-(4-(pivaloyloxy)phenyl)piperazin-1-yl)propyl carbamate] | 63 |  |
| Cc1cccc(C)c1N1CCN(CCC(OC(N)=O)c2ccccc2)CC1 (stereo not drawn) [Example 19, Carbamic acid 3-[4-(2,6-dimethyl-phenyl)-piperazin-1-yl]-1-phenyl-propyl ester] | 48 |  |
| NC(=O)OC(CCN1CCN(c2ccc(Cl)c(Cl)c2)CC1)c1ccc(F)cc1 (stereo not drawn) [Example 76, Carbamic acid 3-[4-(3,4-dichloro-phenyl)-piperazin-1-yl]-1-(4-fluoro-phenyl)-propyl ester] | 50 |  |
| COc1ccc(N2CCN(CCC(OC(N)=O)c3ccc(Cl)c(C(F)(F)F)c3)CC2)cc1 (stereo not drawn) [Example 63, Carbamic acid 1-(4-chloro-3-trifluoromethyl-phenyl)-3-[4-(4-methoxy-phenyl)-piperazin-1-yl]-propyl ester] | 46 |  |
| COc1ccc(N2CCN(CCC(OC(N)=O)c3cccc(Cl)c3)CC2)cc1 (stereo not drawn) [Example 45, Carbamic acid 1-(3-chloro-phenyl)-3-[4-(4-methoxy-phenyl)-piperazin-1-yl]-propyl ester] | 62 |  |
| COc1ccc(N2CCN(CCC(OC(N)=O)c3ccc(Cl)c(Cl)c3)CC2)cc1 (stereo not drawn) [Example 70, Carbamic acid 1-(3,4-dichloro-phenyl)-3-[4-(4-methoxy-phenyl)-piperazin-1-yl]-propyl ester] | 51 |  |
| NC(=O)OC(CCN1CCN(c2ccc(Cl)c(C(F)(F)F)c2)CC1)c1ccccc1 (stereo not drawn) [Example 18, Carbamic acid 3-[4-(4-chloro-3-trifluoromethyl-phenyl)-piperazin-1-yl]-1-phenyl-propyl ester] | 52 |  |
| NC(=O)O[C@H](CCN1CCN(c2ccc(O)cc2)CC1)c1ccccc1 [Example 105, (R)-carbamic acid 3-[4-(4-hydroxy-phenyl)-piperazin-1-yl]-1-phenyl-propyl ester] |  | 6.49 |
